Measurements as given in patent US9533973B2, “Allosteric modulators of 5-hydroxytryptamine 2C receptor (5-HT2CR)” (THE BOARD OF REGENTS OF THE UNIVERSITY OF TEXAS SYSTEM, priority 2011, dated 2017).
Entries after “also recorded” stand apart in the source; their conditions may differ.

Columns and labels:
[1] = Solubility of representative compounds (Table 1); format: physicochemical; conditions: solvents listed
5-HT2CR = target: T1, 5-HT2CR (Homo sapiens, UniProt P28335); assay: 5-HT induced intracellular calcium (Cai++) release assay in live 5-HT2CR-CHO cells; format: cell-based; design: expressed in transfected cells; conditions: 5-HT2CR-CHO cells
T1 sequence (P28335 33-458): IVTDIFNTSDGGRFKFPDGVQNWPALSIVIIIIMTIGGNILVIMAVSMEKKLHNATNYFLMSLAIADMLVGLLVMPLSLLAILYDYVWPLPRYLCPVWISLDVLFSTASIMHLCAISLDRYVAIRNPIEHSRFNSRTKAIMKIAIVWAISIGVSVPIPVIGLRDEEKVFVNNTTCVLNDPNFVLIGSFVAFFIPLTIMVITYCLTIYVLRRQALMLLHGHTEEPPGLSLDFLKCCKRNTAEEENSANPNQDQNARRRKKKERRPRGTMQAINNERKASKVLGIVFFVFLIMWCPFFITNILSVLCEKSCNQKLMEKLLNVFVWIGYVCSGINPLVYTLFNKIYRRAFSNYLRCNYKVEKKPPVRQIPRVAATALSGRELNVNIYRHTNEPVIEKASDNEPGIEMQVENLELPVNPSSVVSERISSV
Protocol: Selected results for the biological characterization of the synthesized compounds can be found in Ding et al., ACS Chem. Neurosci., 3, 538-545, 2012, and also described herein. The biological activity is assessed using an intracellular calcium (Cai^++) release assay. The best-characterized intracellular signaling pathway of the 5-HT2CR is the activation of phospholipase C (PLCβ) via Gαq/11 proteins and the production of diacylglycerol (DAG) and inositol-1,4,5-trisphosphate (IP3), leading to increased Cai^++ release from intracellular stores (Berg et al., Neuropharmacology 55, 969-76, 2008). Functional characterization of our synthetic PNU-69176E (CYD-1-78-2) and its diastereomer CYD-1-78-1 was determined by utilizing an Cai^++ release assay in live cells in which Cai^++ levels can be regarded as an outcome measure of activation of the 5-HT2CR signaling pathway (Berg et al., Neuropharmacology 55, 969-76, 2008). […] In addition, 1 nM of compound CYD-1-78-2 enhanced the Cai^++ response at low concentrations of 5-HT [10^11-3×10^−10 M; F(15,55)=16.73, p<0.01; FIG. 2]. […] Neither compound CYD-1-78-2 [F(10,68)=0.81, n.s.] nor the diastereomer CYD-1-78-1 [F(10,34)=0.76, n.s.] in concentrations up to 10^−5 M induced Cai^++ release in the 5-HT2CR—CHO cells in the absence of 5-HT (FIG. 3). This profile for compounds CYD-1-78-2 and −1 in 5-HT2CR—CHO cells was distinguished from that seen in 5-HT2AR—CHO cells in which neither compound alone or in the presence of 5-HT (compound CYD-1-78-1, F(10,43)=0.78; compound CYD-1-78-2, F(10,55)=1.27; FIG. 4) altered Cai^++ release (Ding et al., ACS Chem. Neurosci. 3, 538-545, 2012).
The Chinese hamster ovary (CHO) cell line stably transfected with 5-HT2CR was a generous gift of K. Berg and W. Clarke (University of Texas Health Science Center, San Antonio) (K. A. Berg, W. P. Clarke, C. Sailstad, A. Saltzman and S. Maayani, Mol. Pharmacol. 1994, 46 (3), 477-484; Ding et al., ACS Chem. Neurosci. 3, 538-545, 2012). Cells were grown at 37° C., 5% CO2 and 85% relative humidity in GlutaMax α-MEM (Invitrogen, Carlsbad Calif.), 5% fetal bovine serum (Atlanta Biologicals, Atlanta Ga.), 100 μg/mL hygromycin (Mediatech, Manassas Va.) and were passaged when they reached 80% confluence.
Changes in Cai^++ levels were determined using the calcium sensitive dye Calcium 4 (FLIPR No-wash kit, Molecular Devices, Sunnyvale, Calif., part #R8142). Cells were plated in serum-replete medium at 20,000 cells/well in black-sided, clear bottom 96-well tissue culture plates and were fed ˜24 hrs later with serum-free medium. Following overnight incubation, medium was removed and replaced with 40 μL of fresh serum-free medium plus 40 μL Calcium 4 dye solution in Hank's balanced saline solution (HBSS, without CaCl2 or MgCl2) supplemented with 2.5 mM water soluble probenicid (Invitrogen) to inhibit extracellular transport of the dye. Plates were incubated for 60 min at 37° C. and 60 min at room temperature in the dark. Fluorescence (λex=485 nm, λem=525 nm) was measured with a FlexStation3 (Molecular Devices). A baseline was established for each well during the initial segment of each run. Addition of 20 μL of 5× concentrated tested compound occurred at 17 sec and fluorescence was recorded every 1.7 sec for 90 sec to determine any innate agonist activity. This first round of 90 sec recordings provided a 20 min preincubation period. […] Maximum peak height was determined by the FlexStation software (SoftMax Pro 5.2) for each well and was normalized to vehicle control.

Which Solubility [1] does the source give for `CS[C@H]1OC([C@@H](NC(=O)C2CNCCN2c2ccccc2)[C@H](C)Cl)[C@H](O)[C@H](O)[C@H]1O` (stereo partly drawn) [CYD-1-82, 1-Phenyl-piperazine-2-carboxylic acid [2-chloro-1-(3,4,5-trihydroxy-6-methylsulfanyl-tetrahydro-pyran-2-yl)-propyl]amide] here?
The Solubility was “EtOH, DMSO”.

What about the “effect on 5-HT-induced Cai++ release” value (5-HT2CR; positive allosteric modulation) of the same molecule?
Its value is “enhanced; also recorded: potentiated”.

What about the EC50 (5-HT2CR; 5-HT-induced Cai++ release) of the same molecule?
The EC50 was 8 ± 4 nM.
